Consider `Cc1nsc2ccc([N+](=O)[O-])cc12`, for which the melting point is 124 to 125 °C. In turn, `CC(=O)Nc1ccc(N2CCN(c3ccncc3)CC2)cc1` gave a melting point of 244 to 247 °C. With `N#CC(C(=O)NC1CCC1)C(=O)C1CC1` (centres undefined) the figure was 110 to 111 °C; with `CCCCCCn1cnc(NC)c1C(=O)NCCCCCCOc1ccc(Cl)cc1`, 55 to 56 °C; with `CC(C)(O)CC(O)=C(C#N)CC(=O)Nc1ccccc1`, 103 °C.

`Fc1cccc(Cl)c1-c1cc(Cl)n(-c2ccc(COc3ncc(C(F)(F)F)cc3Cl)cc2)n1` yielded a melting point of 120 to 121 °C. In turn, `CC(O)(CC(=O)O)CC(=O)O` came in with a melting point of 108 °C. `O=c1c2ccc(Cl)cc2[nH]c2c(O)nn(Cc3ccoc3)c(=O)c12` returned a melting point of over 250 °C. Turning to `C(=C(/c1ccccc1)n1c2ccccc2c2ccccc21)/c1ccccc1`, the melting point is 160 to 162 °C. On to `CC(C)C(S)C(=O)NCC(=O)O` (centres undefined), for which the melting point was 118 to 119 °C. Regarding `CN(C)S(=O)(=O)c1ccc(Cl)c(-c2csc(=Nc3ccc(O)cc3)n2C)c1`, the melting point lay within 221 to 224 °C. With `Cc1c(NC(=O)N2C[C@H](O[Si](C)(C)C(C)(C)C)C[C@H]2CO)ccc(C#N)c1Cl` the figure was 169 to 171 °C; with `CC(C)(C)c1cc(CNn2ccnc2N2CCOCC2)cc(C(C)(C)C)c1O`, 161 to 163 °C. `O=C(c1ccc(I)cc1)C1(c2ccccc2F)CO1` (centres undefined) showed a melting point of 75 to 76 °C. `CC(=O)N1CCc2cc(Cl)ccc21` gave a melting point of 115 to 116 °C. The compound `CCOC(=O)C=C(c1ccc(Cl)cc1)c1ccc(Cl)cc1` displayed a melting point of 54 to 56 °C.

For `CON1CCN2C(=O)C(c3c(C)cc(C)cc3C)C(=O)N2CC1`, the melting point was 229 to 230 °C.

For the compound `CCOc1cc(N)ccc1C(O)c1cc(C)ccn1` (centres undefined), the melting point was 102 to 105 °C. As for `c1cn(Cc2ccc3c(c2)Cc2c(-c4ccsc4)n[nH]c2-3)nn1`, the melting point lay in the range of 250 to 254 °C. `O=Cc1cccc2cc3ccccc3cc12` returned a melting point of 126 to 128 °C.

The compound `O=C(O)[C@@H](Cc1ccccc1)NS(=O)(=O)c1ccc2ccccc2c1` registered a melting point of 146 °C. On to `CC(O)CCc1ccc2c(c1)C(=O)c1ccccc1-2` (centres undefined), for which the melting point lay in the range of 77 to 78 °C.

Take `CC(=O)N1CCn2c(CN3CCOCC3)ccc2C1`: the melting point was 117 to 118 °C. The compound `O=C(O)c1ccc(NCCOc2cccc3ccccc23)cc1` registered a melting point of 193 to 194 °C. With `NOCC(O)CN1CCOCC1` (centres undefined) the figure was 83 to 85 °C; with `Nc1nc2ccc(SSc3ccc4nc(N)[nH]c4c3)cc2[nH]1`, 245 °C. In the case of `NC1=CC(=O)CC(c2cccc(Cl)c2Cl)C1` (centres undefined), the melting point was 209 to 210 °C.

In turn, `O=C(O)c1coc(-c2ccc(Cl)c(C(=O)NCC34CC5CC(CC(C5)C3)C4)c2)n1` yielded a melting point of 254 to 257 °C. To `O=C(c1ccccc1I)N1CCOCC1` belongs 86 to 87 °C; to `CC(O)C#Cc1ccc(Cl)cc1` (centres undefined), 71 to 72 °C; to `CC(C)=CCCC(C)=CCCC(C)=CC=CC(C)=CC(=O)N(C)C`, 39 to 39.5 °C. With `C=CCN(C(C)c1ccccc1)S(=O)(=O)c1ccc(O)cc1` (centres undefined) the figure was 128 to 129 °C; with `O=C(c1cccs1)c1cccc(O)c1C(=O)O`, 168 to 170 °C. Compound `CC12CCC(OC(=O)c3ccc(O)cc3)CC1=CCC1C2CCC2(C)C(=NO)CCC12` (centres undefined) gave a melting point of 177 to 182 °C. Compound `CCCn1nc2c(N)nc3ccccc3c2c1CCN(CC)C(N)=O` yielded a melting point of 206 to 207 °C. With `CC(=Cc1c[nH]c2ccc3c(c12)CCCO3)[N+](=O)[O-]` the figure was 246 to 247 °C. For `Cc1cc(N2CCC(CC(=O)N3CCN(Cc4ccccc4)CC3)CC2)ccc1Oc1ccc(NS(=O)(=O)c2ccc(Cl)c(Cl)c2)cn1`, the melting point is 151 to 155 °C. Regarding `CC(C)(C)OC(=O)N1CCOS1(=O)=O`, the melting point was 122 °C. `Cc1cc(C2=NCCc3ccccc32)n(C)n1`: the melting point is 112 °C.

One may read the melting point as the temperature, or range, at which the solid turns liquid.

The record behind these values is a melting point compilation (Tetko et al.; mined from patent text by program, amines drawn as free bases though some values may be those of a salt).
